This is an account of results in ChEMBL document CHEMBL1150342, “Novel 3-carboxamide-coumarins as potent and selective FXIIa inhibitors” (J Med Chem, 2008).

One may read the IC50 as the point on the concentration scale where inhibition reaches its midpoint.

Activity calls are given as the source filed them. The calls are words filed in the database; no cut-off is given here. Non-standard residues stand in square brackets, D forms with d. Residues, ends and D or L forms follow the SMILES beside them. *: point of attachment. CH2Cl = ClC*

Experiment [1] deals with Coagulation factor VII/tissue factor (Homo sapiens, UniProt P08709). The experiment is described as follows: Inhibition of human tissue factor/factor 7a. The class given is protein-complex assay.
Coagulation factor VII/tissue factor, sequence (P08709 61-212 limits assumed): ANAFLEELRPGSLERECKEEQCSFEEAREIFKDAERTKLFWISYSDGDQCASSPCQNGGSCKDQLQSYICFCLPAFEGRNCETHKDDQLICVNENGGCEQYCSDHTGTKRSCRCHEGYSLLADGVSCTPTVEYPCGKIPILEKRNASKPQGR
Coagulation factor VII/tissue factor, sequence (P08709 213-466 limits assumed): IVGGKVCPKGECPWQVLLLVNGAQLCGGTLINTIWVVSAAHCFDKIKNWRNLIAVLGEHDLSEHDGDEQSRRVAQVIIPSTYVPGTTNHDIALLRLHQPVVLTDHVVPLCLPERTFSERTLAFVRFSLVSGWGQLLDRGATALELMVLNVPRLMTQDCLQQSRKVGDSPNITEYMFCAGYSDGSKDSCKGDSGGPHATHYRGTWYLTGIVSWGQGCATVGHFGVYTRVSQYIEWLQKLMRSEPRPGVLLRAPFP
Coagulation factor VII/tissue factor, sequence (P13726 33-295 partner limits assumed): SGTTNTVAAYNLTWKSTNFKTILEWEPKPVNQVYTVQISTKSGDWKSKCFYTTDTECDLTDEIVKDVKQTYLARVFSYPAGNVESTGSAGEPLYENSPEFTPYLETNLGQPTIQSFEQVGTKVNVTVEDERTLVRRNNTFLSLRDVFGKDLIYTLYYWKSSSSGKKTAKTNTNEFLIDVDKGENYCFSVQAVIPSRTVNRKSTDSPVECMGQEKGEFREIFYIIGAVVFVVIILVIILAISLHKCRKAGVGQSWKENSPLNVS
The target of experiment [2] is T1, Prothrombin (Homo sapiens, UniProt P00734). In words: Inhibition of human thrombin.
Experiment [3] concerns the target T2, Coagulation factor X (Homo sapiens, UniProt P00742). In words: Inhibition of human factor 10a.
In experiment [4] the target is T3, Plasma kallikrein (Homo sapiens, UniProt P03952). The experiment is described as follows: Inhibition of human kallikrein.
T3 sequence (P03952 20-390 limits assumed): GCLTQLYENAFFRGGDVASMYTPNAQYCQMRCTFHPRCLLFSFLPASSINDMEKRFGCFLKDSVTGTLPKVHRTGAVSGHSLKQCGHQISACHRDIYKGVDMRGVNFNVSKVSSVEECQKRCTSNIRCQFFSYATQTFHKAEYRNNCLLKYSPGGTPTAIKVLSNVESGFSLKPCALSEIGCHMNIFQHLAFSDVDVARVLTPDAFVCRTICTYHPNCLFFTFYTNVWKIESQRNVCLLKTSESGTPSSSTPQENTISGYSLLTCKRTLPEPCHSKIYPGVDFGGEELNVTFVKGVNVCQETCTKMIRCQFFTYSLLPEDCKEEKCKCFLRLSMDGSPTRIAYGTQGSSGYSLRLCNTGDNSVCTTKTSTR
T3 sequence (P03952 391-638 limits assumed): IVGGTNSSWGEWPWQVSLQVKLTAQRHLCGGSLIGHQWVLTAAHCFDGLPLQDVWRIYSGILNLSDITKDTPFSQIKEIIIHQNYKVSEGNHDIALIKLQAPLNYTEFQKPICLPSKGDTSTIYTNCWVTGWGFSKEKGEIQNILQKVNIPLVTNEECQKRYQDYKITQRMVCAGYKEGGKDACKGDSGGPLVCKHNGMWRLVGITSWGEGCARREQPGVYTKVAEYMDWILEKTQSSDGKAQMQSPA
Experiment [5] has as its target T4, Coagulation factor XII (Homo sapiens) (UniProt P00748).
T4 sequence (whole entry): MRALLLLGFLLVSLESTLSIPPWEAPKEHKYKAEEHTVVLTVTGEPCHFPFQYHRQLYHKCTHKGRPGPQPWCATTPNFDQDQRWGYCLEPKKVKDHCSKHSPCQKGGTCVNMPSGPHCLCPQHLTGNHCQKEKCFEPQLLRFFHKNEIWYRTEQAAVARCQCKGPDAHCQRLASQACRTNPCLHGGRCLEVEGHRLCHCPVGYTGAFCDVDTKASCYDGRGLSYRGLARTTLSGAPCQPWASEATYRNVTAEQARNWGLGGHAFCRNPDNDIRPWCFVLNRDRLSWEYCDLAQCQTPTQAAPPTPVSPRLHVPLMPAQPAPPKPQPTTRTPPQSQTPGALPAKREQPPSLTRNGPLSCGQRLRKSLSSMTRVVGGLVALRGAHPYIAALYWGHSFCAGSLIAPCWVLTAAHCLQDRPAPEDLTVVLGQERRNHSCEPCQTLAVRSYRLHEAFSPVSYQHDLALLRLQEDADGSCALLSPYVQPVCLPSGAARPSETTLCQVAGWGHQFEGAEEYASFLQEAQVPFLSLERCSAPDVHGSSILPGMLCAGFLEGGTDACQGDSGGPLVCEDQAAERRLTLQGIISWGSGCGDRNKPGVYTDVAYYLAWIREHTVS
In words: Inhibition of human factor 12a at 50 uM.

The target in experiment [6] is T2, Coagulation factor X. The experiment is described as follows: Inhibition of human factor 10a at 50 uM.
In experiment [7] the target is T4, Coagulation factor XII (Homo sapiens). The experiment is described as follows: Inhibition of human factor 12a assessed as residual activity at 49.5 uM. The following applies: TDE = time-dependent effect.
Experiment [8] has as its target T3, Plasma kallikrein. In words: Inhibition of human kallikrein at 50 uM.
A further experiment addresses T5, Coagulation factor XII (Homo sapiens, UniProt P00748).
T5 sequence (P00748 whole entry): T4 sequence (whole entry)
The experiment is described as follows: Inhibition of human factor 12a.

Experiment [9] has as its target Coagulation factor VII/tissue factor (Homo sapiens) (UniProt P08709+P13726). The experiment is described as follows: Inhibition of human tissue factor/factor 7a at 50 uM.
The target of experiment [10] is T1, Prothrombin. The experiment is described as follows: Inhibition of human thrombin at 50 uM.

T2 sequence (P00742 41-179 limits assumed): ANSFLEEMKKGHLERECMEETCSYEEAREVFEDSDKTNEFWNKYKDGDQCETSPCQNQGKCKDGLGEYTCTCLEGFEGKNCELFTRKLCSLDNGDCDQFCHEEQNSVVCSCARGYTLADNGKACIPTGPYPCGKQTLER
T2 sequence (P00742 235-488 limits assumed): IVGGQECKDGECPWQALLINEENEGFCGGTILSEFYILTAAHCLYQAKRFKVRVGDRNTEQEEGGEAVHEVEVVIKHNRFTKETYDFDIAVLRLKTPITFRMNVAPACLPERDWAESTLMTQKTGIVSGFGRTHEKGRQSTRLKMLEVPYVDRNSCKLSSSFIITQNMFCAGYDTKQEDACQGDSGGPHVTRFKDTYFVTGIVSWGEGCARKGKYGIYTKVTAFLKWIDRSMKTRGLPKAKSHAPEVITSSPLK

For `O=C(Nc1ccccc1)c1cc2c(ccc3ccccc32)oc1=O`, the IC50 (in [1]; against Prothrombin [2]; against Coagulation factor X [3]; against Plasma kallikrein [4]) was > 50 µM each time. The result in experiment [5] was inactive.
As to `O=C(Nc1ccccc1)c1cc2cc(Cl)cc(Br)c2oc1=O`, the result (on Coagulation factor X [6]; at Plasma kallikrein [8]; in experiment [9]; at Prothrombin [10]) was inactive. Moreover, in [7], the Activity entry is “tde”. Also, the IC50 at Coagulation factor XII came out at 4.4 µM.
As for `NC(N)=NCCC[C@H](NC(=O)[C@H](Cc1ccccc1)NC(=O)[C@H]1CCCN1)C(=O)CCl` (H-[dP]-Phe-Arg-CH2Cl), the IC50 in experiment [1] is 1.5 µM; against Prothrombin [2], 2.5 µM; at Coagulation factor X [3] it was 1.9 µM; against Plasma kallikrein [4], 0.031 µM; against Coagulation factor XII it was 0.18 µM.
Turning to `Cc1cc(C)cc(NC(=O)c2cc3cc(Cl)cc(Cl)c3oc2=O)c1`, the concentration for half-maximal inhibition (IC50) in experiment [1] was > 50 µM; against Prothrombin [2], > 50 µM; at Coagulation factor X [3], > 50 µM; against Plasma kallikrein [4], > 50 µM; against Coagulation factor XII it was 4.3 µM.
